Earlier results as cited in patent US10980740B2, “Tranexamic acid spray for knee arthroplasty” (SHILPA MEDICARE LIMITED, priority 2017, dated 2021).
Like-named read-outs stand apart in the source and are kept apart here.

What was measured:
[1] = system: Total knee arthroplasty patients
[2] = system: patients undergoing elective total knee arthroplasty
plasminogen = plasminogen (Homo sapiens, UniProt P00747)
Sequence of plasminogen (P00747 20-810 limits assumed, species assumed): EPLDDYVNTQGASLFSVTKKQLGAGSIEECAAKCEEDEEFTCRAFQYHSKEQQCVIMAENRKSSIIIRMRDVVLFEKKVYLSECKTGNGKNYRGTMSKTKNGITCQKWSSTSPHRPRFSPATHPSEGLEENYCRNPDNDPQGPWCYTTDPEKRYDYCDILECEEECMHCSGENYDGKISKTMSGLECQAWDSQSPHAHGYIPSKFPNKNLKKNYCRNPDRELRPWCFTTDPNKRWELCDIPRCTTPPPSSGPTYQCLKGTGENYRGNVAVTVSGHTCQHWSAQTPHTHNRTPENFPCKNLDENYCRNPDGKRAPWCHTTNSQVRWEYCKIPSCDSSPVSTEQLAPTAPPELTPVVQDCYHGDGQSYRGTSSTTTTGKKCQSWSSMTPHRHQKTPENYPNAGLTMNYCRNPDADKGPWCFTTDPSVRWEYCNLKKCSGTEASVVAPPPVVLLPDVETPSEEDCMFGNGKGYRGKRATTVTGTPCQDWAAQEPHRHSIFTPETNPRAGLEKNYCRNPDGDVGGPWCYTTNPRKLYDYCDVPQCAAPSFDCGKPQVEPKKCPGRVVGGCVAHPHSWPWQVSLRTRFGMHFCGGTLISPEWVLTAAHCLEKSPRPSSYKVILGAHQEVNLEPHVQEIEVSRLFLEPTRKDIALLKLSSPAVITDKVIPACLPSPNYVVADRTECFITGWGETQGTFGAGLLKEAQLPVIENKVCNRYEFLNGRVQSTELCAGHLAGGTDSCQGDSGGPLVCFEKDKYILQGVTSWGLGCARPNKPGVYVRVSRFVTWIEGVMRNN

- potency in vitro relative to aminocaproic acid (plasminogen): about 10 times
Compound: NC[C@H]1CC[C@H](C(=O)O)CC1 [Tranexamic acid]
- systemic side effects ([1]; topical tranexamic acid): reduces the systemic side effects
- reduction of peri- and post-operative blood loss, topical compared with intravenous ([1]; total knee arthroplasty, topical 2 gm in intra-articular drain, clamped one hour): equally efficacious
- reducing calculated blood loss and transfusion rates ([2]; intravenous): effective
- reducing calculated blood loss and transfusion rates ([2]; topical, 3 gm diluted in 45 mL normal saline, applied after cementation): effective
